Data: ChEMBL document CHEMBL4834458, “Diterpenoids with Aromatase Inhibitory Activity from the Rhizomes of Kaempferia elegans” (J Nat Prod, 2021)

What was measured:
Aromatase [1] = target: T1, Aromatase (Homo sapiens, UniProt P11511); experiment: Inhibition of aromatase (unknown origin) at 12.5 uM relative to control
T1 sequence (P11511 whole entry): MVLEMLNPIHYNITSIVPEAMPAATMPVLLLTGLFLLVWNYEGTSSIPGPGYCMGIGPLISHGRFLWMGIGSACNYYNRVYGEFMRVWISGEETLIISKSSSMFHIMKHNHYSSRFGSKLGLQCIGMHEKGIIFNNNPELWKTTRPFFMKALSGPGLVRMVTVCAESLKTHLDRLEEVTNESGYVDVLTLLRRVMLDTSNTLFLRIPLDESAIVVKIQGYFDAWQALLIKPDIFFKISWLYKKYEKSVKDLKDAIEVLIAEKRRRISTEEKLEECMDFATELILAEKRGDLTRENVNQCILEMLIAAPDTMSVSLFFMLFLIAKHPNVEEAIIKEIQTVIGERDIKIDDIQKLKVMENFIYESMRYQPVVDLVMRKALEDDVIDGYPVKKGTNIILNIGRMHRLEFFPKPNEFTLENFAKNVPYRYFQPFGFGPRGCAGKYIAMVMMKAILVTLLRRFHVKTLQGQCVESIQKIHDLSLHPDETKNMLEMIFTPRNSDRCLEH

Aromatase [2] = target: T1, Aromatase; experiment: Inhibition of aromatase (unknown origin)
HeLa = experiment: Cytotoxicity against human HeLa cells assessed as reduction in cell viability incubated for 48 hrs by MTT assay; type: functional, cell-based
HepG2 = experiment: Cytotoxicity against human HepG2 cells assessed as reduction in cell viability incubated for 48 hrs by MTT assay; type: functional, cell-based; conditions: HepG2, 48 h
K562 = experiment: Cytotoxicity against human K562 cells assessed as reduction in cell viability incubated for 48 hrs by MTT assay; type: functional, cell-based; conditions: K562, 48 h
[3] = Cytotoxicity against human NCI-H69AR cells assessed as reduction in cell viability incubated for 48 hrs by MTT assay; type: functional, cell-based
A549 = experiment: Cytotoxicity against human A549 cells assessed as reduction in cell viability incubated for 48 hrs by MTT assay; type: functional, cell-based; conditions: A549, 48 h
MDA-MB-231 = experiment: Cytotoxicity against human MDA-MB-231 cells assessed as reduction in cell viability incubated for 48 hrs by MTT assay; type: functional, cell-based; conditions: MDA-MB-231, 48 h
T47D = experiment: Cytotoxicity against human T47D cells assessed as reduction in cell viability incubated for 48 hrs by MTT assay; type: functional, cell-based
HuCCT-1 = experiment: Cytotoxicity against human HuCC-A1 cells assessed as reduction in cell viability incubated for 48 hrs by MTT assay; type: functional, cell-based; conditions: HuCCT-1, 48 h
MRC5 = experiment: Cytotoxicity against human MRC5 cells assessed as reduction in cell viability incubated for 48 hrs by MTT assay; type: cell-based; conditions: MRC5, 48 h

| SMILES | inhibition at 12.5 µM (Aromatase [1]) | IC50 (Aromatase [2]) | further results |
| --- | --- | --- | --- |
| CC(C)C1=CC2=CC[C@H]3C(C)(C)CCC[C@]3(C)[C@H]2[C@H](O)C1 | 36% | – | – |
| C=C[C@]1(C)C=C2CC[C@H]3C(C)(C)CCC[C@]3(C)[C@H]2CC1 | – | 10.4 µM | – |
| CC(C)[C@@]12CC3=C([C@@H](CO1)O2)[C@@]1(C)CCCC(C)(C)[C@@H]1CC3 | 26% | – | – |
| C=C[C@@]1(C)CC(=O)C2=C(CC[C@H]3C(C)(C)CCC[C@]23C)C1 | – | 7.9 µM | – |
| C[C@H]1C[C@]2(O)O[C@@]1(C)C=C1CC[C@H]3C(C)(C)CCC[C@]3(C)[C@H]12 | – | 11.8 µM | – |
| CC(C)C1=CC(=O)C2=C(CC[C@H]3C(C)(C)CCC[C@]23C)C1=O | 42% | – | – |
| CC(C)[C@@]1(O)CC[C@H]2C(CC[C@H]3C(C)(C)CCC[C@]23C)[C@H]1O (stereo partly specified) | 16% | – | – |
| CC(C)c1cc(O)c2c(c1)CC[C@H]1C(C)(C)CCC[C@]21C | – | 3.7 µM | IC50 (HeLa): 27.2 µM; IC50 (HepG2): 27.2 µM; IC50 (K562): 27.2 µM; IC50 [3]: 27.2 µM; IC50 (A549): 27.2 µM; IC50 (MDA-MB-231): 27.2 µM; IC50 (T47D): 129 µM; IC50 (HuCCT-1): 27.2 µM; IC50 (MRC5): 82.1 µM |
| CC(C)c1cc(O)c2c(c1)[C@H](O)C[C@H]1C(C)(C)CCC[C@]21C | – | 7.2 µM | – |
| CC(C)c1ccc2c(c1)CC[C@H]1C(C)(C)CCC[C@]21C | 44% | – | – |
| C[C@@H]1OC(=O)C=C2[C@H](O)C[C@H]3C(C)(C)CCC[C@]3(C)[C@H]21 | 14% | – | – |
| CC(C)c1ccc2c(c1)[C@H](O)C[C@H]1C(C)(C)CCC[C@]21C | 30% | – | – |
| C[C@@H]1OC(=O)C=C2[C@H](O)C[C@H]3C(C)(C)CCC[C@]3(C)[C@]21O | 25% | – | – |
| C=C[C@]1(C)C=C2[C@H](O)C[C@H]3C(C)(C)CCC[C@]3(C)[C@H]2CC1 | 31% | – | – |
| CC(C)[C@]1(O)C=C2[C@H](O)C[C@H]3C(C)(C)CCC[C@]3(C)[C@H]2C[C@H]1O | 21% | – | – |
| CC(C)[C@@]1(O)CC[C@H]2C(CC[C@H]3C(C)(C)CCC[C@]23C)[C@@H]1O (stereo partly specified) | 15% | – | – |
| C[C@@H]1O[C@]2(C(C)(C)O)C=C3CC[C@H]4C(C)(C)CCC[C@]4(C)[C@@]31OO2 | – | 10.7 µM | – |
